Measurements taken from PubChem BioAssay (NCI).
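Cultured in 96-well plates, cells were exposed to test compound for 48 hours across five concentrations. GI50 = concentration required for 50% inhibition of growth. The concentration for full growth arrest is given as TGI.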

Key:
Test in all cases: NCI-60 cell line screen, 48 h
[1] = test system: MOLT-4 leukemia
[2] = test system: SK-MEL-28 melanoma
[3] = test system: EKVX NSCLC
[4] = test system: MALME-3M melanoma
[5] = test system: LOX IMVI melanoma
[6] = test system: SW-620 colon
[7] = test system: A549 NSCLC
[8] = test system: HCT-15 colon
[9] = test system: CCRF-CEM leukemia
[10] = test system: HCC-2998 colon

| Structure (SMILES) | TGI [1] [µM] | TGI [2] [µM] | TGI [3] [µM] | TGI [4] [µM] | TGI [5] [µM] | TGI [6] [µM] | TGI [7] [µM] | TGI [8] [µM] | TGI [9] [µM] | TGI [10] [µM] | GI50 [1] [µM] | GI50 [2] [µM] | GI50 [3] [µM] | GI50 [4] [µM] | GI50 [5] [µM] | GI50 [6] [µM] | GI50 [7] [µM] | GI50 [8] [µM] | GI50 [9] [µM] | GI50 [10] [µM] |
| --- | --- | --- | --- | --- | --- | --- | --- | --- | --- | --- | --- | --- | --- | --- | --- | --- | --- | --- | --- | --- |
| COc1cc(C2c3cc4c(cc3[C@@H](Nc3ccc(N5CCOCC5)cc3)C3COC(=O)[C@H]23)OCO4)cc(OC)c1O (stereo partly specified) | 0.19 | 26.8 | 5.06 | 15 | 4.27 | 10.1 | 1.62 | 2.59 | 0.773 | 4.1 | – | – | – | – | – | – | – | – | – | – |
| N/C(=N\N=C/c1cc(Cl)cc(Cl)c1O)NO | > 23 | 44.7 | 37.6 | 24 | 6.66 | 38.5 | 36.5 | 17.8 | – | 10.1 | – | – | – | – | – | – | – | – | – | – |
| Cn1nc2ccc3nccc(NCCNCCCl)c3c2n1 | > 100 | > 100 | > 100 | > 100 | > 100 | > 100 | > 100 | > 100 | > 100 | > 100 | – | – | – | – | – | – | – | – | – | – |
| CCOC(=O)C1CCn2c(nc3c(=O)n(C)c(=O)n(C)c32)S1 (stereo unspecified) | > 100 | – | > 100 | > 100 | > 100 | > 100 | > 100 | > 100 | > 100 | – | – | – | – | – | – | – | – | – | – | – |
| CC1=NN(C(=O)c2ccccc2)C(=O)C1N=Nc1ccccc1C(=O)O (stereo unspecified) | > 100 | > 100 | > 100 | > 100 | > 100 | > 100 | > 100 | > 100 | > 50.7 | > 70.6 | – | – | – | – | – | – | – | – | – | – |
| CCNC(=O)CCCCC(=O)c1c(C)[nH]c(/C=C2\N=C(c3ccc[nH]3)C=C2OC)c1C | > 100 | 3.09 | 31.7 | 5.74 | 3.65 | 3.51 | 21.4 | 4.4 | > 100 | 7.9 | 2.31 | 1.66 | 11.2 | 2.32 | 1.76 | 1.94 | 4.72 | 1.83 | 2.59 | 2.42 |
| O=C(/C=C\c1ccc(OCCCCCC[P+](c2ccccc2)(c2ccccc2)c2ccccc2)cc1)c1ccc2c(c1)OCCO2 | 8.57 | – | 6.72 | – | – | 2.55 | – | – | 6.15 | 2.2 | 2.32 | – | 1.5 | – | – | 1.11 | – | – | 1.22 | 1.01 |
| O=C(O)C1C2CCC(C2)C1c1ccccc1 (stereo unspecified) | > 100 | > 100 | > 100 | > 100 | > 100 | > 100 | > 100 | > 100 | > 100 | > 100 | – | – | – | – | – | – | – | – | – | – |
| CN(C)S(=O)(=O)c1cccc(-c2nc3sc4c(c3c(=O)[nH]2)CCCC4)c1 | > 100 | > 100 | > 100 | – | – | > 100 | – | > 100 | > 100 | – | > 100 | > 100 | > 100 | – | – | 1.78 | – | > 100 | – | – |
| COC(=O)C[C@](O)(CCC(C)(C)O)C(=O)O[C@@H]1C(OC)=C[C@]23CCCN2CCc2cc4c(cc2[C@H]13)OCO4 | > 100 | 0.294 | 0.43 | 0.109 | 0.426 | – | 0.45 | 2.07 | – | 0.0855 | – | – | – | – | – | – | – | – | – | – |
| Cc1cc(C)c(N)c(C)c1N | > 100 | > 100 | > 100 | > 100 | > 100 | > 100 | > 100 | > 100 | > 100 | > 100 | – | – | – | – | – | – | – | – | – | – |
| CCOC(=O)CCc1c(C)c2c(O)cc(O)cc2oc1=O | > 100 | > 100 | > 100 | > 100 | > 100 | > 100 | > 100 | > 100 | > 100 | > 100 | – | – | – | – | – | – | – | – | – | – |
| O=C(/C=C/c1ccsc1)c1ccc(Cl)s1 | 52 | > 100 | > 100 | > 100 | 37.1 | 55.5 | > 100 | > 100 | 63.9 | > 100 | – | – | – | – | – | – | – | – | – | – |
| CC(C(O)c1ccccc1)[N+](=O)[O-] (stereo unspecified) | 4.88 | 41.5 | > 100 | 48.4 | 6.02 | > 100 | 40 | 43.4 | > 100 | 30.5 | – | – | – | – | – | – | – | – | – | – |
